#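 The compound was tested at five concentrations on cells cultured in 96-well plates, with a 48-hour exposure period. TGI marks complete inhibition of growth.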
# Tests used:
# Experiment in all cases: DTP human tumour cell line panel, 48 h
# MCF7 breast = test system: MCF7 breast
# OVCAR-8 ovarian = test system: OVCAR-8 ovarian
# MALME-3M melanoma = test system: MALME-3M melanoma
# PC-3 prostate = test system: PC-3 prostate
# HCC-2998 colon = test system: HCC-2998 colon
# T-47D breast = test system: T-47D breast
# SK-OV-3 ovarian = test system: SK-OV-3 ovarian
# NCI-H23 lung = test system: NCI-H23 lung
# A549 NSCLC = test system: A549 NSCLC
# SF-268 CNS = test system: SF-268 CNS
# COLO 205 colon = test system: COLO 205 colon
# HL-60(TB) leukemia = test system: HL-60(TB) leukemia
# SNB-75 CNS = test system: SNB-75 CNS
# CCRF-CEM leukemia = test system: CCRF-CEM leukemia
# HCT-15 colon = test system: HCT-15 colon
# HOP-62 NSCLC = test system: HOP-62 NSCLC
# KM12 colon = test system: KM12 colon
# K-562 leukemia = test system: K-562 leukemia
# UACC-257 melanoma = test system: UACC-257 melanoma
# RXF 393 renal = test system: RXF 393 renal
# UACC-62 melanoma = test system: UACC-62 melanoma
# IGROV1 ovarian = test system: IGROV1 ovarian
# MOLT-4 leukemia = test system: MOLT-4 leukemia
# SR leukemia = test system: SR leukemia
# TK-10 renal = test system: TK-10 renal
# SK-MEL-5 melanoma = test system: SK-MEL-5 melanoma
# HT29 colon = test system: HT29 colon
# CAKI-1 renal = test system: CAKI-1 renal
# DU-145 prostate = test system: DU-145 prostate
# RPMI-8226 leukemia = test system: RPMI-8226 leukemia
# M14 melanoma = test system: M14 melanoma
# SF-295 CNS = test system: SF-295 CNS
# 786-0 renal = test system: 786-0 renal
# SK-MEL-28 melanoma = test system: SK-MEL-28 melanoma
# SN12C renal = test system: SN12C renal
# SW-620 colon = test system: SW-620 colon
# MDA-MB-231 breast = test system: MDA-MB-231 breast
# EKVX NSCLC = test system: EKVX NSCLC
# MDA-N = test system: MDA-N
# NCI/ADR-RES ovarian = test system: NCI/ADR-RES ovarian
# U251 CNS = test system: U251 CNS
# BT-549 breast = test system: BT-549 breast
# OVCAR-4 ovarian = test system: OVCAR-4 ovarian
# SNB-19 CNS = test system: SNB-19 CNS
# NCI-H226 lung = test system: NCI-H226 lung
# NCI-H460 lung = test system: NCI-H460 lung
# OVCAR-5 ovarian = test system: OVCAR-5 ovarian
# HOP-92 NSCLC = test system: HOP-92 NSCLC
# ACHN renal = test system: ACHN renal
# OVCAR-3 ovarian = test system: OVCAR-3 ovarian
# A498 renal = test system: A498 renal
# HCT-116 colon = test system: HCT-116 colon
# MDA-MB-435 = test system: MDA-MB-435
# UO-31 renal = test system: UO-31 renal
structure (smiles),measurement,setting,value
COc1ccc(C(=O)/C=C/c2ccc(OCC(=O)N3CCN(c4ccccc4)CC3)cc2)cc1OC,TGI,MCF7 breast,> 10 µM
same,TGI,OVCAR-8 ovarian,> 10 µM
same,TGI,MALME-3M melanoma,> 10 µM
same,TGI,PC-3 prostate,> 10 µM
same,TGI,HCC-2998 colon,> 10 µM
same,TGI,T-47D breast,> 10 µM
same,TGI,SK-OV-3 ovarian,> 10 µM
same,TGI,NCI-H23 lung,5.55 µM
same,TGI,A549 NSCLC,> 10 µM
same,TGI,SF-268 CNS,> 10 µM
same,TGI,COLO 205 colon,> 10 µM
same,TGI,HL-60(TB) leukemia,> 10 µM
same,TGI,SNB-75 CNS,8.75 µM
same,TGI,CCRF-CEM leukemia,7.21 µM
same,TGI,HCT-15 colon,> 10 µM
same,TGI,HOP-62 NSCLC,> 10 µM
same,TGI,KM12 colon,> 10 µM
same,TGI,K-562 leukemia,> 10 µM
same,TGI,UACC-257 melanoma,> 10 µM
same,TGI,RXF 393 renal,3.86 µM
same,TGI,UACC-62 melanoma,> 10 µM
same,TGI,IGROV1 ovarian,> 10 µM
same,TGI,MOLT-4 leukemia,7.06 µM
same,TGI,SR leukemia,6.47 µM
same,TGI,TK-10 renal,> 10 µM
same,TGI,SK-MEL-5 melanoma,> 10 µM
same,TGI,HT29 colon,> 10 µM
same,TGI,CAKI-1 renal,> 10 µM
same,TGI,DU-145 prostate,> 10 µM
same,TGI,RPMI-8226 leukemia,> 10 µM
same,TGI,M14 melanoma,> 10 µM
same,TGI,SF-295 CNS,> 10 µM
same,TGI,786-0 renal,> 10 µM
same,TGI,SK-MEL-28 melanoma,> 10 µM
same,TGI,SN12C renal,> 10 µM
same,TGI,SW-620 colon,> 10 µM
same,TGI,MDA-MB-231 breast,> 10 µM
same,TGI,EKVX NSCLC,> 10 µM
same,TGI,MDA-N,> 10 µM
CC(=O)OCc1cc(OC(C)=O)c2cc3c(OC(C)=O)cccc3c(OC(C)=O)c2c1,TGI,NCI/ADR-RES ovarian,43.4 µM
same,TGI,MCF7 breast,38.9 µM
same,TGI,U251 CNS,32 µM
same,TGI,OVCAR-8 ovarian,35.4 µM
same,TGI,MALME-3M melanoma,4.08 µM
same,TGI,PC-3 prostate,38.6 µM
same,TGI,BT-549 breast,49.6 µM
same,TGI,OVCAR-4 ovarian,59.3 µM
same,TGI,HCC-2998 colon,31.6 µM
same,TGI,T-47D breast,51.3 µM
same,TGI,SK-OV-3 ovarian,41.1 µM
same,TGI,NCI-H23 lung,56.8 µM
same,TGI,A549 NSCLC,30.9 µM
same,TGI,SF-268 CNS,58.1 µM
same,TGI,COLO 205 colon,> 100 µM
same,TGI,SNB-19 CNS,50.6 µM
same,TGI,HL-60(TB) leukemia,47.5 µM
same,TGI,SNB-75 CNS,45.2 µM
same,TGI,NCI-H226 lung,47.3 µM
same,TGI,HCT-15 colon,31.1 µM
same,TGI,HOP-62 NSCLC,39.6 µM
same,TGI,K-562 leukemia,> 100 µM
same,TGI,NCI-H460 lung,23.8 µM
same,TGI,OVCAR-5 ovarian,46.4 µM
same,TGI,UACC-257 melanoma,49.1 µM
same,TGI,UACC-62 melanoma,38.7 µM
same,TGI,IGROV1 ovarian,40.3 µM
same,TGI,HOP-92 NSCLC,52.2 µM
same,TGI,MOLT-4 leukemia,> 100 µM
same,TGI,SR leukemia,> 100 µM
same,TGI,TK-10 renal,33 µM
same,TGI,SK-MEL-5 melanoma,23.7 µM
same,TGI,ACHN renal,34.2 µM
same,TGI,HT29 colon,43.9 µM
same,TGI,DU-145 prostate,43.5 µM
same,TGI,OVCAR-3 ovarian,33.6 µM
same,TGI,A498 renal,27.3 µM
same,TGI,RPMI-8226 leukemia,44.6 µM
same,TGI,M14 melanoma,55.7 µM
same,TGI,SF-295 CNS,32.9 µM
same,TGI,HCT-116 colon,> 100 µM
same,TGI,786-0 renal,34.4 µM
same,TGI,MDA-MB-435,43.9 µM
same,TGI,SK-MEL-28 melanoma,51.7 µM
same,TGI,UO-31 renal,41.2 µM
same,TGI,SN12C renal,32.2 µM
same,TGI,SW-620 colon,44.2 µM
same,TGI,MDA-MB-231 breast,58.9 µM
same,TGI,EKVX NSCLC,34.1 µM
same,TGI,MDA-N,40.9 µM

# Source: PubChem BioAssay (NCI)
